# Test results as given in ChEMBL document CHEMBL5360641, “4'-Ethynyl-2'-deoxy-2'-β-fluoro-2-fluoroadenosine: A Highly Potent and Orally Available Clinical Candidate for the Treatment of HIV-1 Infection” (J Med Chem, 2023).
# pEC50: −log10 of the molar value.
# Tests used:
# [1] = Tmax in Sprague-Dawley rat at 2.5 mg/kg, IG measured upto 24 hrs by LC-MS/MS analysis; assay type: ADME, organism-based; conditions: in vivo, po
# [2] = Acute toxicity in Sprague-Dawley rat assessed as effect on food intake at 500 to 2000 mg/kg, IG measured for 14 days; assay type: organism-based; conditions: in vivo, po, 336 h, dose 500-2000 mg/kg, time 14 day
# [3] = Acute toxicity in Sprague-Dawley rat assessed as effect on spleen damage at 500 to 2000 mg/kg, IG measured on day 15; assay type: organism-based; conditions: in vivo, po, 360 h, dose 500-2000 mg/kg, time 15 day
# [4] = Half life in Sprague-Dawley rat at 5 mg/kg, iv measured upto 24 hrs by LC-MS/MS analysis; assay type: ADME, organism-based; conditions: in vivo
# [5] = Bioavailability in Sprague-Dawley rat at 5 mg/kg, IG measured upto 24 hrs by LC-MS/MS analysis; assay type: ADME, organism-based; conditions: in vivo, po
# [6] = system: Human immunodeficiency virus 1; assay: Antiviral activity against HIV1 IIIB infected in human C8166 cells assessed as inhibition of viral replication by measuring reduction in p24 antigen level incubated for 3 to 7 days by ELISA analysis; assay type: functional, organism-based; conditions: Human immunodeficiency virus 1, IIIB
# HEK-293T = assay: Cytotoxicity against HEK293T cells assessed as reduction in cell viability upto 100 uM MTT assay; assay type: toxicity, cell-based; conditions: human
# [7] = system: Human immunodeficiency virus 1; assay: Antiviral activity against HIV-1 harboring integrase G140S/Q148H double mutant infected in human TZM-bl cells assessed as inhibition of viral replication incubated for 3 to 7 days by luciferase assay; assay type: functional, organism-based; conditions: Human immunodeficiency virus 1, TZM-bl
# [8] = Tmax in Sprague-Dawley rat at 10 mg/kg, IG measured upto 24 hrs by LC-MS/MS analysis; assay type: ADME, organism-based; conditions: in vivo, po
# [9] = Cytotoxicity against HEK293T cells assessed as reduction in cell viability by MTT assay; assay type: toxicity, cell-based, HEK-293T; conditions: human
# [10] = system: Human immunodeficiency virus 1; assay: Antiviral activity against HIV1 NL4-3 infected in human C8166 cells assessed as inhibition of viral replication by measuring reduction in p24 antigen level incubated for 3 to 7 days by ELISA analysis; assay type: functional, organism-based; conditions: Human immunodeficiency virus 1, NL4-3, C8166
# [11] = AUC (0 to t) in female Sprague-Dawley rat at 100 mg/kg, IG measured at 0.5 hrs LC-MS/MS analysis; assay type: ADME, organism-based; set-up: time 0.5 hrs, dose 100 mg/kg, route ig; conditions: in vivo, po
# [12] = Bioavailability in Sprague-Dawley rat at 10 mg/kg, IG measured upto 24 hrs by LC-MS/MS analysis; assay type: ADME, organism-based; conditions: in vivo, po
# [13] = Acute toxicity in Sprague-Dawley rat assessed as death at 500 to 2000 mg/kg, IG measured for 14 days; assay type: organism-based; conditions: in vivo, po, 336 h, dose 500-2000 mg/kg, time 14 day
# [14] = Tmax in Sprague-Dawley rat at 5 mg/kg, IG measured upto 24 hrs by LC-MS/MS analysis; assay type: ADME, organism-based; conditions: in vivo, po
# [15] = Cmax in Sprague-Dawley rat at 5 mg/kg, iv measured upto 24 hrs by LC-MS/MS analysis; assay type: ADME, organism-based; set-up: time < 24 hrs, dose 5 mg/kg, route iv; conditions: in vivo
# [16] = Acute toxicity in Sprague-Dawley rat assessed as effect on lung damage at 500 to 2000 mg/kg, IG measured on day 15; assay type: organism-based; conditions: in vivo, po, 360 h, dose 500-2000 mg/kg, time 15 day
# [17] = system: Human immunodeficiency virus 1; assay: Antiviral activity against HIV1 4755-5 infected in human C8166 cells assessed as inhibition of viral replication by measuring reduction in p24 antigen level incubated for 3 to 7 days by ELISA analysis; assay type: functional, organism-based; conditions: Human immunodeficiency virus 1, 4755-5, C8166
# [18] = Half life in Sprague-Dawley rat at 2.5 mg/kg, IG measured upto 24 hrs by LC-MS/MS analysis; assay type: ADME, organism-based; conditions: in vivo, po
# [19] = Toxicity in Sprague-Dawley rat assessed as effect on body weight at 10 to 30 mg/kg, po administered once daily for 4 weeks and measured after 24 hrs post last dose; assay type: organism-based; conditions: in vivo, 696 h, dose 10-30 mg/kg
# [20] = AUC (0 to t) in female Sprague-Dawley rat at 10 mg/kg, IG measured at 24 hrs LC-MS/MS analysis; assay type: ADME, organism-based; set-up: time 24 hrs, dose 10 mg/kg, route ig; conditions: in vivo, po
# [21] = Half life in Sprague-Dawley rat at 5 mg/kg, IG measured upto 24 hrs by LC-MS/MS analysis; assay type: ADME, organism-based; conditions: in vivo, po
# [22] = Toxicity in po dosed Sprague-Dawley rat assessed as NOAEL administered once daily for 4 weeks and measured after 24 hrs post last dose; assay type: organism-based; conditions: in vivo
# [23] = AUC (0 to t) in male Sprague-Dawley rat at 10 mg/kg, IG measured at 0.5 hrs LC-MS/MS analysis; assay type: ADME, organism-based; set-up: dose 10 mg/kg, time 0.5 hrs, route ig; conditions: in vivo, po
# [24] = Drug uptake in Beagle dog PBMC cells assessed as ((2R,3R,4S,5R)-5-(6-amino-2-fluoro-9H-purin-9-yl)-2-ethynyl-4-fluoro-3-hydroxytetrahydrofuran-2-yl)methyl tetrahydrogen triphosphate formation at 6 to 12 mg/kg, po measured at 2 to 168 hrs by LC-MS/MS analysis; assay type: ADME, organism-based, Canis lupus familiaris; conditions: in vivo, dose lower 6 mg/kg, time lower 2 hrs, dose upper 12 mg/kg, time upper 168 hrs
# [25] = AUC (0 to t) in male Sprague-Dawley rat at 100 mg/kg, IG measured at 24 hrs LC-MS/MS analysis; assay type: ADME, organism-based; set-up: time 24 hrs, dose 100 mg/kg, route ig; conditions: in vivo, po
# [26] = Toxicity in Sprague-Dawley rat assessed as effect on food consumption at 10 to 30 mg/kg, po administered once daily for 4 weeks and measured after 24 hrs post last dose; assay type: organism-based; conditions: in vivo, 696 h, dose 10-30 mg/kg
# [27] = Apparent oral clearance in Sprague-Dawley rat at 2.5 mg/kg, IG measured upto 24 hrs by LC-MS/MS analysis; assay type: ADME, organism-based; conditions: in vivo
# [28] = AUC (0 to t) in male Sprague-Dawley rat at 30 mg/kg, IG measured at 24 hrs LC-MS/MS analysis; assay type: ADME, organism-based; set-up: time 24 hrs, dose 30 mg/kg, route ig; conditions: in vivo, po
# [29] = Apparent oral clearance in Sprague-Dawley rat at 5 mg/kg, IG measured upto 24 hrs by LC-MS/MS analysis; assay type: ADME, organism-based; conditions: in vivo
# [30] = system: Human immunodeficiency virus 1; assay: Antiviral activity against HIV1 IIIB infected in human C8166 cells assessed as inhibition of syncytia formation incubated for 3 to 7 days by syncytia assays; assay type: functional, organism-based; conditions: Human immunodeficiency virus 1, IIIB
# [31] = system: Human immunodeficiency virus 1; assay: Antiviral activity against HIV1 KIZ001 infected in human PBMC assessed as inhibition of viral replication by measuring reduction in p24 antigen level incubated for 3 to 7 days by ELISA analysis; assay type: functional, organism-based; conditions: Human immunodeficiency virus 1, KIZ001, PBMC
# [32] = AUC (0 to t) in Sprague-Dawley rat at 5 mg/kg, IG measured upto 24 hrs by LC-MS/MS analysis; assay type: ADME, organism-based; set-up: time < 24 hrs, dose 5 mg/kg, route ig; conditions: in vivo, po
# [33] = Acute toxicity in Sprague-Dawley rat assessed as effect on liver damage at 500 to 2000 mg/kg, IG measured on day 15; assay type: organism-based; conditions: in vivo, po, 360 h, dose 500-2000 mg/kg, time 15 day
# [34] = Cmax in Sprague-Dawley rat at 10 mg/kg, IG measured upto 24 hrs by LC-MS/MS analysis; assay type: ADME, organism-based; set-up: time < 24 hrs, dose 10 mg/kg, route ig; conditions: in vivo, po
# [35] = AUC (0 to t) in female Sprague-Dawley rat at 30 mg/kg, IG measured at 24 hrs LC-MS/MS analysis; assay type: ADME, organism-based; set-up: dose 30 mg/kg, time 24 hrs, route ig; conditions: in vivo, po
# [36] = AUC (0 to t) in Sprague-Dawley rat at 10 mg/kg, IG measured upto 24 hrs by LC-MS/MS analysis; assay type: ADME, organism-based; set-up: dose 10 mg/kg, time < 24 hrs, route ig; conditions: in vivo, po
# [37] = AUC (0 to t) in female Sprague-Dawley rat at 10 mg/kg, IG measured at 0.5 hrs LC-MS/MS analysis; assay type: ADME, organism-based; set-up: time 0.5 hrs, dose 10 mg/kg, route ig; conditions: in vivo, po
# [38] = Acute toxicity in Sprague-Dawley rat assessed as effect on brain damage at 500 to 2000 mg/kg, IG measured on day 15; assay type: organism-based; conditions: in vivo, po, 360 h, dose 500-2000 mg/kg, time 15 day
structure (smiles),measurement,setting,value
C#C[C@]1(CO)O[C@@H](n2cnc3c(N)nc(F)nc32)[C@@H](F)[C@@H]1O,Tmax,[1],0.63 h
same,Activity,[2],Non-Toxic
same,Activity,[3],Non-Toxic
same,half-life,[4],1.8 h
same,bioavailability,[5],67.5%
same,pEC50,[6],8.19
same,Activity,HEK-293T,Non-Toxic
same,pEC50,[7],8.55
same,Tmax,[8],1 h
same,CC50,[9],> 100000 nM
same,pEC50,[10],8.93
same,AUC(0-t) at 0.5 h,[11],87400 ng·h/mL
same,bioavailability,[12],76.3%
same,Activity,[13],Non-Toxic
same,Tmax,[14],0.56 h
same,Cmax,[15],10200 ng/mL
same,Activity,[16],Non-Toxic
same,pEC50,[17],7.49
same,half-life,[18],2 h
same,Activity,[19],Non-Toxic
same,AUC(0-t) at 24 h,[20],6800 ng·h/mL
same,half-life,[21],3.2 h
same,NOAEL at 696 h,[22],30 mg/kg
same,AUC(0-t) at 0.5 h,[23],6860 ng·h/mL
same,Drug metabolism,[24],Metabolite_Detected
same,AUC(0-t) at 24 h,[25],85800 ng·h/mL
same,Activity,[26],Non-Toxic
same,CL/F,[27],24.8 mL/min/kg
same,AUC(0-t) at 24 h,[28],27100 ng·h/mL
same,CL/F,[29],25 mL/min/kg
same,pEC50,[30],8.45
same,pEC50,[31],8.73
same,AUC(0-t) at 24 h,[32],3630 ng·h/mL
same,Activity,[33],Non-Toxic
same,Cmax,[34],2110 ng/mL
same,AUC(0-t) at 24 h,[35],26500 ng·h/mL
same,AUC(0-t) at 24 h,[36],8660 ng·h/mL
same,AUC(0-t) at 0.5 h,[37],7020 ng·h/mL
same,Activity,[38],Non-Toxic
